Where “and” joins values, the source holds several entries; their conditions need not be identical. Equal values may be shown once. Read-outs that look alike come from different tables or passages of the source. Each block holds one molecule with its values, some of them ahead of it.
Assays:
mice [1] = settings: for Protection against treatment-related mechanical allodynia by OATP1B2 deficiency: mouse, in vivo
mice [2] = settings: cited from earlier work
OATP1B-type transporters = settings: cited from earlier work
hOATP1B1 [3] = biological target: T1, hOATP1B1 (Homo sapiens, UniProt Q9Y6L6); experiment: Inhibition of vincristine uptake in HEK293 cells overexpressing hOATP1B1; settings: inhibitor 15 min pre-treatment
T1 sequence (Q9Y6L6 1-691): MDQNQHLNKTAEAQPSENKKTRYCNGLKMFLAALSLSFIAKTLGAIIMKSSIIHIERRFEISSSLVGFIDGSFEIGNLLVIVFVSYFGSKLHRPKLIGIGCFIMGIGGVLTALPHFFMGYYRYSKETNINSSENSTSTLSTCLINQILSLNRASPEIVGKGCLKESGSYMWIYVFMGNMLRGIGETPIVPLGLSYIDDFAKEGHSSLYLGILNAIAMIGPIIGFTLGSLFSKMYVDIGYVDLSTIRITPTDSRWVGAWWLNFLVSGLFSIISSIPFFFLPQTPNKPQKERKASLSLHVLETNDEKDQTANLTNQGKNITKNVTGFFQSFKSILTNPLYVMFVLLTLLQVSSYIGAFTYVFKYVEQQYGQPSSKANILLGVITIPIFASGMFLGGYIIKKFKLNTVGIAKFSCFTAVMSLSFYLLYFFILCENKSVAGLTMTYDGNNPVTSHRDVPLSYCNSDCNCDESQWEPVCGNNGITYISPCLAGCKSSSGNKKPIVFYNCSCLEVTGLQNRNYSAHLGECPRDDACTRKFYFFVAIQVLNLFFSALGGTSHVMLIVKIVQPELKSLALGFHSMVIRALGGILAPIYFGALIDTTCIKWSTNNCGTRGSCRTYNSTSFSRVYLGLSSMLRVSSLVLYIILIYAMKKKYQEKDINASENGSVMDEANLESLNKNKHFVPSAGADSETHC

mOATP1B2 [4] = biological target: T2, mOATP1B2 (Mus musculus, UniProt Q9JJL3); experiment: Inhibition of EβG uptake in HEK293 cells overexpressing mOATP1B2; format: cell-based
T2 sequence (Q9JJL3 1-689): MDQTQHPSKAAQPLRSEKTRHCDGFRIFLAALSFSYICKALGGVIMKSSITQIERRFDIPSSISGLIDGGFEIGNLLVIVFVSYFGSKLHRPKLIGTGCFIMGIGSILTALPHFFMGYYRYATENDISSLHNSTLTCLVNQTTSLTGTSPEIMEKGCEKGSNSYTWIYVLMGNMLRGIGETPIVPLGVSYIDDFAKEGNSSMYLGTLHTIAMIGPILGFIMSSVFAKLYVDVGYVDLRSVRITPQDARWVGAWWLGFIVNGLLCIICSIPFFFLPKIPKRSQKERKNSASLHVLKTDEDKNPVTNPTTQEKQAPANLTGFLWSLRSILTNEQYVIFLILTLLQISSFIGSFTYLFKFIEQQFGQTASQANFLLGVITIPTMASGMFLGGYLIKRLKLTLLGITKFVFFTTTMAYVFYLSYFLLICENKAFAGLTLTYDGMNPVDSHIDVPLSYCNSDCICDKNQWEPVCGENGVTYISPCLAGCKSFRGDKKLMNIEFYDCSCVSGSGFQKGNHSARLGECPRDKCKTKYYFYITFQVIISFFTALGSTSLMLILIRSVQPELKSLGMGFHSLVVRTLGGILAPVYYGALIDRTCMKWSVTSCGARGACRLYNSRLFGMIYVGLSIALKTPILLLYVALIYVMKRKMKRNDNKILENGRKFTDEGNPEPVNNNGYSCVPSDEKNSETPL

hOATP1B3 [5] = biological target: T3, hOATP1B3 (Homo sapiens, UniProt Q9NPD5); experiment: Inhibition of EβG uptake in HEK293 cells overexpressing hOATP1B3; settings: HEK293 hOATP1B3; inhibitor 10 μM, 15-min pre-incubation
T3 sequence (Q9NPD5 1-702): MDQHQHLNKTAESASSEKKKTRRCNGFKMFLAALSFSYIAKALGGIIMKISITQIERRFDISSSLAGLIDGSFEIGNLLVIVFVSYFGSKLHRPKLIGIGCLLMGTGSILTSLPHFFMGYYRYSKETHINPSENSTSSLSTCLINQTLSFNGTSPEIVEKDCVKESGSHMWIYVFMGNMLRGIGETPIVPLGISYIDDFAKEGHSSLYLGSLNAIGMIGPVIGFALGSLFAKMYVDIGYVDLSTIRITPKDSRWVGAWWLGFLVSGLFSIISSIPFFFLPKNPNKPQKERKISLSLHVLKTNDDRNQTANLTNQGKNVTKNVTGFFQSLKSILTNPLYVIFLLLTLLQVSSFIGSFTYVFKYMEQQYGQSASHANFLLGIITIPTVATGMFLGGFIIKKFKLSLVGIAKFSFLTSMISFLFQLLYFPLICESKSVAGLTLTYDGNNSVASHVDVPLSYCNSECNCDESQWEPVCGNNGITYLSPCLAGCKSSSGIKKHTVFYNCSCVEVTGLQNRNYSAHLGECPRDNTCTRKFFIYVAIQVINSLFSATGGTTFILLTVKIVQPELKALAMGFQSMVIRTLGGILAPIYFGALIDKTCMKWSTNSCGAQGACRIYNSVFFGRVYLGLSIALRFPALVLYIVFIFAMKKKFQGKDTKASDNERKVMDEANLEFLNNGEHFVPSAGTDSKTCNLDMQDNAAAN

OATP1B2 = experiment: Plasma level and DRG/plasma ratio of α-tocopherol in mice (biomarker of OATP1B2 function); format: in vivo, mouse
mOATP1B2 [6] = biological target: T2, mOATP1B2; experiment: Inhibition of vincristine uptake in HEK293 cells overexpressing mOATP1B2; format: cell-based
hOATP1B3 [7] = biological target: T3, hOATP1B3; experiment: Inhibition of vincristine uptake in HEK293 cells overexpressing hOATP1B3; settings: inhibitor 15 min pre-treatment
hOATP1B1 [8] = biological target: T1, hOATP1B1; experiment: Inhibition of EβG uptake in HEK293 cells overexpressing hOATP1B1; settings: inhibitor 10 μM, 15-min pre-incubation
[9] = mOATP1B2, in presence of alpha-tocopherol

SMILES: CC(=O)O[C@H]1C(=O)[C@@]2(C)[C@H]([C@H](OC(=O)c3ccccc3)[C@]3(O)C[C@H](OC(=O)[C@H](O)[C@@H](NC(=O)c4ccccc4)c4ccccc4)C(C)=C1C3(C)C)[C@]1(OC(C)=O)CO[C@@H]1C[C@@H]2O [Paclitaxel, paclitaxel]
Protection against treatment-related mechanical allodynia by OATP1B2 deficiency (mice [1]): protection against treatment-related mechanical allodynia was only observed

SMILES: OCCN(CCO)c1nc(N2CCCCC2)c2nc(N(CCO)CCO)nc(N3CCCCC3)c2n1 [Dipyridamole, dipyridamole]
Protection against VIPN (mice [2]): partially protected against VIPN in mice | Inhibitory potency against OATP1B-type transporters (OATP1B-type transporters): moderate inhibitory potency

Protection against treatment-related mechanical allodynia by OATP1B2 deficiency (mice [1]; DBA/1LacJ): independently of OATP1B2
SMILES: C/C(=C\c1csc(C)n1)[C@@H]1C[C@@H]2O[C@]2(C)CCC[C@H](C)[C@H](O)[C@@H](C)C(=O)C(C)(C)[C@@H](O)CC(=O)N1 [Ixabepilone, ixabepilone]

SMILES: CO[C@H]1/C=C/O[C@@]2(C)Oc3c(C)c(O)c4c(O)c(c(/C=N/N5CCN(C)CC5)c(O)c4c3C2=O)NC(=O)/C(C)=C\C=C\[C@H](C)[C@H](O)[C@@H](C)[C@@H](O)[C@@H](C)[C@H](OC(C)=O)[C@@H]1C [Rifampicin, rifampicin]
Protective effect against VIPN (mechanical allodynia) (mice [1]; rifampin pretreatment 20 mg/kg, single vincristine 1 mg/kg, wild-type mice): could be replicated with pretreatment of orally administered rifampin | Vincristine uptake (% of vehicle) (hOATP1B1 [3]): 68.5513 % of vehicle and 91.3571 % of vehicle and 64.0921 % of vehicle | EβG uptake (% of vehicle) (mOATP1B2 [4]; HEK293 mOATP1B2, inhibitor 10 μM, 15-min pre-incubation): 9.089 % of vehicle and 9.168 % of vehicle and 8.011 % of vehicle | EβG uptake (% of vehicle) (hOATP1B3 [5]): 4.339 % of vehicle and 4.237 % of vehicle and 4.051 % of vehicle | Level of α-tocopherol (% of wild-type baseline), DRG/Plasma Ratio (OATP1B2; WT mice treated with the inhibitor, DRG/plasma ratio, listed as Rifampin): 27.9959% and 27.249% and 34.1971% | Level of α-tocopherol (% of wild-type baseline), Plasma (OATP1B2; WT mice treated with the inhibitor, plasma, listed as Rifampin): 236.636% and 352.754% and 217.386% | Level of α-tocopherol (% of wild-type baseline), relative DRG/plasma ratio (OATP1B2; WT mice, 2 hours after rifampin 20 mg/kg i.p.): 27.9959 % of wild-type baseline and 27.249 % of wild-type baseline and 34.1971 % of wild-type baseline | Vincristine uptake (% of vehicle) (mOATP1B2 [6]; HEK293 mOATP1B2, inhibitor 15 min pre-treatment): 69.4167 % of vehicle and 71.9856 % of vehicle and 78.1737 % of vehicle and 74.3324 % of vehicle and 63.8503 % of vehicle and 67.3213 % of vehicle | Vincristine uptake (% of vehicle) (hOATP1B3 [7]): 68.0365 % of vehicle and 67.1426 % of vehicle and 57.6334 % of vehicle and 46.0272 % of vehicle and 55.4053 % of vehicle and 65.8991 % of vehicle | EβG uptake (% of vehicle) (hOATP1B1 [8]): 26.1825 % of vehicle and 31.1005 % of vehicle and 27.1566 % of vehicle

Protection against treatment-related mechanical allodynia by OATP1B2 deficiency (mice [1]; DBA/1LacJ): independently of OATP1B2
SMILES: CCC1=C[C@@H]2CN(C1)Cc1c([nH]c3ccccc13)[C@@](C(=O)OC)(c1cc3c(cc1OC)N(C)[C@H]1[C@@](O)(C(=O)OC)[C@H](OC(C)=O)[C@]4(CC)C=CCN5CC[C@]31[C@@H]54)C2 [Vinorelbine, vinorelbine]

Vincristine uptake (% of vehicle) (mOATP1B2 [6]; [9]): 51.7599% and 63.6149% and 58.7604%
SMILES: Cc1c(C)c2c(c(C)c1O)CC[C@@](C)(CCC[C@H](C)CCC[C@H](C)CCCC(C)C)O2 [alpha-tocopherol]
EβG uptake (% of vehicle) (mOATP1B2 [4]; [9]): 113.612% and 99.0126% and 119.375% and 118.704% and 95.6597% and 100.791%

Protection against treatment-related mechanical allodynia by OATP1B2 deficiency (mice [1]; DBA/1LacJ): independently of OATP1B2
SMILES: CC(=O)O[C@@]12CO[C@@H]1C[C@H](O)[C@@]1(C)C(=O)[C@H](O)C3=C(C)[C@@H](OC(=O)[C@H](O)[C@@H](NC(=O)OC(C)(C)C)c4ccccc4)C[C@@](O)([C@@H](OC(=O)c4ccccc4)[C@H]21)C3(C)C [Docetaxel, docetaxel]

Protection against treatment-related mechanical allodynia by OATP1B2 deficiency (mice [1]; DBA/1LacJ): independently of OATP1B2
SMILES: C=C1C[C@@H]2CC[C@@]34C[C@H]5O[C@H]6[C@@H](O3)[C@H]3O[C@H](CC[C@@H]3O[C@H]6[C@H]5O4)CC(=O)C[C@@H]3[C@@H](OC)[C@@H](C[C@H](O)CN)O[C@H]3C[C@H]3O[C@@H](CC[C@@H]1O2)C[C@@H](C)C3=C [Eribulin, eribulin]

Source: paper PMC10443802, “Targeting a xenobiotic transporter to ameliorate vincristine-induced sensory neuropathy” (JCI Insight, 2023)
